Data from US20050209104A1, “Dinoflagellate karlotoxins, methods of isolation and uses thereof” (priority 2002, published 2005).
In brackets after ≈: the same amount, converted by molar mass.

What was measured:
[1] = tested on: zebrafish (Danio rerio-60 days old); experiment: Effect of KmTx 2 on fish (mortality and histology); assay type: in vivo
Procedure: Zebrafish (Danio rerio-60 days old) were exposed to 0.1, 0.5, 1, or 2 μg/ml KmTx 2 in 50 ml of aerated reconstituted fresh water (soft) [ASTM, 1992 #125]. Toxin dilutions were made in MeOH (200 μl max. per treatment) and controls were exposed to 200 μl MeOH only. Three fish were exposed per replicate, three replicates per treatment. […] Upon death, fish were preserved in neutral buffered formalin and prepared for histological examination as described in Noga 2000.

[2] = tested on: Candida albicans (ATCC 14053); experiment: Anti-fungal broth microdilution assay (yeast); assay type: cell-based; details: lowest dose with no growth after 96 hours, 28° C.
Procedure: The following fungal strains were purchased from the American Type Culture Collection (Manassas, Va.), Aspergillus niger (ATCC 1004) as a representative filamentous fungi, and Candida albicans (ATCC 14053) as a representative yeast. Assays were performed according to the following National Committee for Clinical Laboratory Standards documents; M27-A2 Reference Method for Broth Dilution Antifungal Susceptibility Testing of Yeasts; Approved Standard—Second Edition([NCCLS, 2002), and M38-A Reference Method for Broth Dilution Antifungal Susceptibility Testing of Filamentous Fungi; Approved Standard (NCCLS, 2002). Procedures for the broth microdilution modification were followed for both species with the following exceptions; A. niger stocks were maintained on Potato Dextrose Agar at 25° C., while C. albicans was maintained on Yeast Malt Agar at 28° C., both according to ATCC recommendations. Amphotericin B was used as a positive control. Microdilution assays were performed in HyQ-RPMI-1640 media (HyClone, Logan, Utah.), with 2.05 mM L-glutamine, without sodium bicarbonate, pH 7.2 using dilutions of 1 mg/ml DMSO stocks of KmTx 2 and amphotericin B.
The following concentrations were tested for both KmTx2 and amphotericin B: 0.0625, 0.125, 0.25, 0.5, 1, 2, 4, 8, and 16 μg/ml. A maximum of 1.6% DMSO was added to any given well. Plates were incubated at 25 and 28° C., respectively, for A. niger and C. albicans. […] Amphotericin B and all culture media were purchased from Sigma-Aldrich (St. Louis, Mo.).

[3] = tested on: rat ventricular cardiac myocytes; experiment: Ion permeation measurement, Ca^2+ with fura-2 (cardiac myocyte); assay type: cell-based; details: 60 seconds after application of 0.25 μg/ml
[4] = tested on: rainbow trout erythrocytes; experiment: Osmotic protection assay; assay type: cell-based; details: 30 mM osmolyte, even at 1 μg/ml KmTx 2
Procedure: The following osmolytes (all purchased from Sigma-Aldrich Co., St Louis, Mo.) were prepared as 30 mM solutions using the Tris buFFer +CaCl2: sucrose (MW 342.3), polyethylene glycol (MW 400), polyethylene glycol (MW 600), maltohexaose (MW 990.0), polyethylene glycol (MW 8,000), dextran (MW 10,000). Osmolarity of each solution was measured using a Vapro 5520 vapor pressure osmometer (Wescor Inc., Logan Utah). […] The osmolarities of PEG 8,000 and 10,000 MW dextran were approximately double this amount (ca. 640 mOsm).
Assays were performed by preparing trout erythrocyte suspensions and toxin dilutions (0, 0.25 0.5, and 1 μg/ml) in the appropriate osmolyte solution and performing the hemolysis assay as described in supplemental materials.

[5] = tested on: K. micrum (CCMP 2282); experiment: Exposure of Karlodinium micrum to KmTx 2; assay type: cell-based
Procedure: Oxyrrhis marina (1.7×10^4 cells/mil) and K. micrum (CCMP 2282) (3.5×10^4 cells/ml) were exposed, in triplicate, to 0, 0.1, 0.5, and 1 μg/ml KmTx 2 in six well non-tissue culture treated polystyrene plates (Becton Dickinson Labware, Lincoln Park N.J.). The O. marina culture was obtained through single cell isolation from a Chesapeake Bay water sample and was maintained in 15 psu artificial sea water (Instant Ocean Brand) using Rhodomonas sp. (CCMP 767) as a food source. O. marina was starved for 24 hours prior to exposures to reduce the number of food organisms. K. micrum (CCMP 2282) was maintained in 12 psu artificial sea water (Instant Ocean Brand) with f/2 nutrient mixture plus 1% soil extract as described in Deeds et al. (2002). Cell densities were measured at 1 and 24 hours using a Coulter Multisizer II particle counter by enumerating the 7-20 μm and the […] size fractions, respectively, for K. micrum and O. marina using a Coulter Accucomp software package (Coulter Electronics Limited, Miami Fla.). […]
Hemolytic activity remaining in solution was measured at 1 hour by mixing 100 μl of each treatment with an equal volume of diluted rainbow trout RBC suspension as described above in Example 3.

## C=C(CC[C@H](O)[C@H]1O[C@H](C[C@@H](O)[C@H](O)[C@H](C)CCC[C@@H](O)[C@H](O)[C@H](O)[C@@H](C)CC[C@@H](O)[C@H](O)[C@H](C)C[C@@H](O)CCC[C@@H](O)CCC[C@@H](O)/C=C/C[C@@H](O)CO)[C@@H](O)[C@@H](O)[C@@H]1O)[C@H](O)[C@H](O)[C@@H]1C[C@H](O)[C@H](O)[C@@H]([C@H](O)[C@@H](O)/C=C/CCCCCCCC/C=C/C=C/Cl)O1 [KmTx 2]
[1]; 0.1 μg/ml, 6 hr exposure
  survival: survived the full 6 hr exposure
[1]; 0.1 μg/ml, 6 hrs
  histological examination of gills: loss of secondary structure of gill lamellae and sloughing of gill epithelial tissue
[1]; 0.5 μg/ml
  histological examination of gills: Severe necrosis and degeneration of gill tissue
  time to death, all fish: < 1 h
[2]
  Minimal inhibitory concentration (MIC): 16 µg/mL (≈ 11.9 µM)
[3]
  [Ca^2+]i in cardiac myocyte: dramatically elevated
[4]
  molecular weight of inert osmolyte giving complete prevention of lysis: > 8,000 Da
[5]; 1 μg/ml, after 24 hours
  K. micrum culture growth: continued to divide
[5]; 0.1, 0.5, and 1 μg/ml
  effect on cultures of K. micrum: no effect
